Assay results from patent publication US20120014917A1, “METHODS OF TREATING HIV PATIENTS WITH ANTI-FIBROTICS” (University of Minnesota, priority 2009, published 2012).
“Also recorded” adds a separate entry of the source.

Tests used:
SIV MAC239 = test: Pirfenidone in SIV-infected non-human primate model (FIG. 1 protocol, Example 2); assay type: in vivo
Description: Venous blood will be used to measure CD4^+ cell count by flow cytometry. Tissue biopsies (LN and ileal GALT samples) are divided; one portion will be processed by immunohistochemical staining for quantitative image analysis to determine the absolute size of the total CD4^+ cell population, and the remaining portion will be processed by flow cytometry to proportionately quantify CD4^+ cells (total, naïve, central memory [CM], and effector memory [EM] T cells). These methods have been published elsewhere [Schacker et al., 2006, Clinical and Vaccine Immunology 13:556-60; Schacker et al., 2005, AIDS 19:2169-71; Schacker et al., 2002, J Clin Invest 110:1133-9; Schacker J Infect Dis 186:1092-7]. For flow cytometry, a portion of LN tissue and GALT will be placed on ice and CD4^+ cells are isolated within 24 hours by gently separating the cells from surrounding tissue by using a mesh screen. One million cells are washed once in FACS wash (PBS supplemented with 0.1% sodium azide and 2% bovine serum albumin; Sigma). After aspiration of the supernatant, cells will be stained with peridin clorophylla protein-conjugated CD4, allophycocyanin conjugated CD8, phycoerythrin conjugated CD27, and fluorescein isothiocyanate-conjugated CD45RO (all BD Pharmingen), and incubated for 30 min at 4° C., followed by another wash. Cells will be fixed with 1% paraformaldahyde (Electron Microscopy Sciences) and analyzed on a FACS Calibur flow cytometer (BD Pharmingen). Lymphocytes will be gated on the basis of characteristic forward and side scatter properties, followed by separation into CD4^+ T cells and CD8^+ T cells on the basis of expression of CD4 and CD8. Naive T cells are classified by expression of CD27 without expression of CD45RO, as described elsewhere [Brenchley et al., 2003, Blood 101:2711-20]. CM T cells will be classified by coexpression of CD27 and CD45RO, and EM T cells are classified by lack of CD27 expression.
To quantify the total CD4^+ T cell population in each compartment, 4-μm sections will be prepared from the fixed tissues and stained with antibody for CD4 by using either clone 1F6 (Ventana Medical Systems) or clone 4B12 (Neomarkers; Lab Vision). Images will be captured to quantify the percentage of tissue area occupied by CD4 by using PHOTOSHOP CS2, version 9.0 imaging software (ADOBE SYSTEMS, Inc.) with plug-ins from REINDEER GRAPHICS. Inc.
To quantify collagen in the TZ, methods similar to those previously published can be used [Schacker et al., 2002, J. Clin. Investig. 110:1133-1139]. Sections (4 μm) are stained using a modified trichrome stain to identify collagen fibers, and approximately 18 images from the TZ are captured and transported into PHOTOSHOP CS imaging software (ADOBE SYSTEMS, Inc.). Image analysis tools from REINDEER GRAPHICS, Inc. (Asheville, N.C.) may provide better sensitivity for isolating collagen fibers to quantify the percent area occupied by collagen.
In this study, six animals were divided into two groups of three animals each. One group received pirfenidone for 2 weeks and then was infected with SIV MAC239. […] Pirfenidone was continued for 12 weeks following infection and then discontinued for 12 weeks (i.e., week 24) and then restarted. Thus, the pirfenidone-treated group would receive pirfenidone from week −2 to week 12 (14 weeks) and from week 24 to week 36 (12 weeks) for a […]. […] The dose of pirfenidone used was 200 mg/kg orally, twice daily (BID) for a total daily dose of 400 mg/kg/day. This corresponds to a human dose of approximately 6.5 mg/kg BID.
A diagram of the protocol can be seen in FIG. 1. Lymph node and rectal biopsy samples were collected at day 0 and again at weeks 4, 12, 24, and 36 after infection. […]

SIV infection = test: 24-week study of pirfenidone plus ARV versus ARV only in SIV infection (FIG. 6 protocol, Example 4); assay type: in vivo
Experimental: FIG. 6 depicts a study protocol wherein pirfenidone is administered from Week −2 (relative to SIV infection) through the end of the study and co-administration of antiretroviral therapy is initiated at Week 8 and continued through the end of the study.
This example describes a 24-week study according to the protocol depicted in FIG. 6. In short, there were two groups in the study. The first group (group C as depicted in FIG. 6) received only ARV beginning at Week 8 (relative to SIV infection) of the study and continuing through week 24. The second group (group D as depicted in FIG. 6) received pirfenidone beginning at week −2 of the study and ARV beginning at Week 8. Both pirfenidone and ARV were then co-administered through Week 24 of the study. Tissues were biopsied at Week −2. Additional biopsies were conducted at Weeks 12, 16 and 24 (after sacrifice of the animal).

[1] = test system: TNF-α, TGF-β1, bFGF, PDGF, and EGF; settings: reported in Zhang et al. 1998; Cain et al. 1998; cited from earlier work
[2] = test system: collagen expression; matrix metalloproteinases (MMPs) and TIMPs; settings: reported; cited from earlier work

Structure (SMILES): Cc1ccc(=O)n(-c2ccccc2)c1 [pirfenidone]
- tolerability, adverse effects or toxicity (SIV MAC239; 200 mg/kg orally BID (400 mg/kg/day)): well-tolerated without adverse effects or toxicity
- peripheral blood CD4 T cell count (SIV MAC239; pirfenidone 200 mg/kg BID orally vs animals not given pirfenidone, FIG. 3A): no significant change; also recorded: no obvious difference
- percent CD4 (CD4%) in peripheral blood (SIV MAC239; pirfenidone 200 mg/kg BID orally vs animals not given pirfenidone, FIG. 3B): no significant change; also recorded: no obvious difference
- plasma SIV RNA load (viral load) (SIV MAC239; pirfenidone 200 mg/kg BID orally vs animals not given pirfenidone, FIG. 3C): no significant change; also recorded: no obvious difference
- fibrosis (percent area of T cell zone occupied by collagen) in lymph nodes (SIV MAC239; pirfenidone 200 mg/kg BID vs animals not given pirfenidone, FIGS. 4, 5A, 11A): decreased; also recorded: significant reduction; also recorded: less fibrosis; also recorded: significant difference
- size of the CD4+ T cell population (area staining positive for CD4) in lymph node T cell zone (SIV MAC239; pirfenidone 200 mg/kg BID vs animals not given pirfenidone, FIGS. 4, 5B, 11C): increased; also recorded: more of the TZ stains positive for CD4^+ T cells; also recorded: higher CD4 numbers; also recorded: significant difference
- proportion of the TZ occupied by collagen (composite, FIG. 12A) (SIV MAC239; pirfenidone only arm vs no treatment): lower
- CD4 population in Peyer's Patches (SIV MAC239; pirfenidone vs control animals, FIG. 4D): higher
- proportion of the TZ occupied by collagen (composite, FIG. 12A) (SIV infection; ARV + pirfenidone arm vs ARV only): lower
- increase in the TZ area staining positive for CD4+ T cells upon initiation of ARV (SIV infection; animals treated with pirfenidone vs ARV only, FIG. 11D): greater increase
- rate of change in CD4+ area in TZ (SIV infection; co-administration of pirfenidone and ARV relative to ARV alone, FIG. 12B): improves
- absolute number of naïve CD4 T cells of the TZ (SIV infection; group D (pirfenidone + ARV) relative to group C (ARV only), week 16 through week 24, FIG. 9): increase
- number of CD4 T cells in the TZ (TZ area staining positive for CD4+ T cells) (SIV infection; group D (pirfenidone + ARV) relative to group C (ARV only), week 16 through week 24, FIGS. 8, 11D): increased; also recorded: more of the TZ stains positive for CD4^+ T cells
- percentage of CD4 T cells in GALT (SIV infection; group D (pirfenidone + ARV) relative to group C (ARV only), week 24, FIG. 10): increased
- percentage area of the T cell zone with collagen (SIV infection; group D (pirfenidone from week -2 + ARV from week 8) relative to group C (ARV only), FIGS. 7, 11B): significantly lower; also recorded: significant reduction
- excessive biosynthesis or release of various cytokines such as TNF-α, TGF-β1, bFGF, PDGF, and EGF [1]: inhibit
- balance of matrix metalloproteinases (MMPs) and their endogenous inhibitors (TIMPs) [2]: alter
- collagen expression [2]: decrease
